Assay results as given in patent US20200237766A1, “PKM2 ACTIVATORS IN COMBINATION WITH REACTIVE OXYGEN SPECIES FOR TREATMENT OF CANCER” (TOLERO PHARMACEUTICALS, INC., priority 2017, published 2020).
Where two headings read alike, the source gives them in different places.

Target: PKM2 (Homo sapiens, UniProt P14618)
Assay: PKM2 activation biochemical assay (AC50 / max. response vs fructose 1,6-bisphosphate)
Conditions: for Max. Resp. (%): % maximum response in a biochemical assay as compared with Fructose 1,6-bisphosphate
[1] = biochemical assay, read-out: PKM2 AC50

Chain of PKM2 (P14618 whole entry): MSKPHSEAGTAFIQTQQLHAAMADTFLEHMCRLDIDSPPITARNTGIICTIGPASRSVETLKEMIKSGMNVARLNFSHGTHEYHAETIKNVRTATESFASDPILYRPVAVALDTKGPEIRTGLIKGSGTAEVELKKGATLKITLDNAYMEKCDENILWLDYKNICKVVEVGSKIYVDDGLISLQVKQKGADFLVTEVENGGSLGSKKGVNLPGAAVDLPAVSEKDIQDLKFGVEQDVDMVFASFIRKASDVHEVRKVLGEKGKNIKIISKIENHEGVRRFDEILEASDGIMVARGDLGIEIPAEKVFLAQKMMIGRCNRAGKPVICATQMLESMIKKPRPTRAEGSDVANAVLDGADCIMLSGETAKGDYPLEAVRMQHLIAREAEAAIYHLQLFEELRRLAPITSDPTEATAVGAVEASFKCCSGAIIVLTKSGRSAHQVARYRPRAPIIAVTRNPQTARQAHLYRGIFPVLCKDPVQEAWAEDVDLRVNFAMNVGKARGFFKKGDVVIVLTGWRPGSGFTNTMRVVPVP

Row | SMILES | Max. Resp. (%) | AC50 [1] [nM] | AC50 [nM]
1 | COC1CCCN(CCN(Cc2c(N)cccc2Cl)C(=O)c2cc(C(F)(F)F)n[nH]2)C1 (stereo not drawn) [Compound 237] | 100% | 183 | 
2 | Nc1cccc(Cl)c1CN(CCN1CC[C@@H](F)C1)C(=O)c1cc(C(F)(F)F)n[nH]1 [Compound 242] | 100% |  | 465
3 | O=C(c1cc(C(F)(F)F)n[nH]1)N(CCC1CCS(=O)(=O)C1)Cc1cccc(F)c1 (stereo not drawn) [Compound 67] | 95% |  | 1630
4 | O=C(c1cc(C(F)(F)F)n[nH]1)N(Cc1ccc(O)cc1F)CC1CCC1 [Compound 244] | 107% | 62 | 
5 | COc1cc(C(=O)CCSC(=S)NCc2cccnc2)cc(OC)c1OC [PMA22] | 131% | 10100 | 
6 | COc1ccc(N)cc1CN(CCN1CCCCCC1)C(=O)c1cc(C(F)(F)F)n[nH]1 [Compound 215] | 100% | 1190 | 
7 | O=C(c1cc(Br)n[nH]1)N(Cc1ccc(O)cc1Cl)CC1CCC1 [Compound 125] | 100% | 35 | 
8 | CS(=O)(=O)N1CCCC(CCN(Cc2ccccc2Cl)C(=O)c2cc(C(F)(F)F)n[nH]2)C1 (stereo not drawn) [Compound 228] | 100% | 2000 | 
9 | CCOCCN(Cc1c(Cl)cccc1Cl)C(=O)c1cc(C(F)(F)F)n[nH]1 [Compound 42] | 76% | 8780 | 
10 | O=C(c1cc(C(F)(F)F)n[nH]1)N(CCN1CCCC(O)C1)Cc1ccccc1Cl (stereo not drawn) [Compound 220] | 100% | 465 | 
11 | O=C(CCSC(=S)NCc1cccnc1)c1cc[nH]c1 [PMA35] | 30% | 4340 | 
12 | CCN1CCC(CCN(Cc2ccccc2Cl)C(=O)c2cc(C(F)(F)F)n[nH]2)CC1 [Compound 101] | 96% | 1860 | 
13 | O=C(c1cc(C(F)(F)F)n[nH]1)N(Cc1ccc(O)cc1F)CC1CCC1 [Compound 1] | 100% |  | 
14 | O=C(c1cc(C(F)(F)F)n[nH]1)N(Cc1ccc(O)cc1F)CC1COC1 [Compound 15] | 102% | 150 | 
15 | O=C(c1cc(C(F)(F)F)n[nH]1)N(CCC1CCCCO1)Cc1ccccc1Cl (stereo not drawn) [Compound 44] | 32% | 50000 | 
16 | Cn1cc(C(=O)c2cccc(Cl)c2Cl)cc1C(=O)NCNC(=O)c1cc(C(=O)c2cccc(Cl)c2Cl)cn1C [CA4] |  | 3.2 | 
17 | CCC1CCN(CCN(Cc2ccccc2Cl)C(=O)c2cc(C(F)(F)F)n[nH]2)CC1 [Compound 199] | 100/100% | 100 | 
18 | Cc1ccc2nc(Cn3c(Cc4ccccc4)nc4ccccc43)cc(=O)n2c1 [PP1] | 148% | 3500 | 
19 | Cc1cn2c(=O)cc(Cn3cnc4ccccc43)nc2s1 [PP17] |  | 466 | 
20 | O=C(CCSC(=S)NCc1cccnc1)c1ccc([N+](=O)[O-])cc1 [PMA13] | 49% | 2760 | 
21 | O=C(c1cc(Br)n[nH]1)N(Cc1cccc2[nH]cnc12)CC1CCC1 [Compound 120] | 100% |  | 
22 | O=C(CCSC(=S)NCc1cccnc1)c1nccs1 [PMA28] | 72% | 3560 | 
23 | Nc1cc(C(=O)N(Cc2ccc(O)cc2F)CC2CCC2)[nH]n1 [Compound 3] | 45% | 43800 | 

Row | SMILES | Max. Resp. (%) | AC50 [1] [nM] | AC50 [nM]
24 | Nc1cccc(Cl)c1CN(CCN1CCCC(O)C1)C(=O)c1cc(C(F)(F)F)n[nH]1 (stereo not drawn) [Compound 225] | 100% | 102 | 
25 | O=C(c1cc(Cl)n[nH]1)N(Cc1cccc2[nH]cnc12)CC1CCC1 [Compound 119] | 100% | 2930 | 
26 | CCN(CC)CCN(Cc1ccccc1F)C(=O)c1cc(C(F)(F)F)n[nH]1 [Compound 148] | 100% |  | 505
27 | CCOCCN(Cc1ccccc1F)C(=O)c1cc(C(F)(F)F)n[nH]1 [Compound 30] | 72% |  | 
28 | O=C(CCSC(=S)NCc1cccnc1)c1cccs1 [PMA26] | 20% | > 20000 | 
29 | Nc1ccc(CN(CC2CCC2)C(=O)c2cc(C(F)(F)F)n[nH]2)c(Cl)c1 [Compound 134] | 100% | 1080 | 
30 | CCNCCN(Cc1ccccc1F)C(=O)c1cc(C(F)(F)F)n[nH]1 [Compound 155] | 100% | 2150 | 
31 | O=C(c1cc(C(F)(F)F)n[nH]1)N(CCC1CCNCC1)Cc1ccccc1F [Compound 98] | 56% |  | 2050
32 | O=C(c1cc(C(F)(F)F)n[nH]1)N(CCC1CCS(=O)(=O)CC1)Cc1ccc(O)cc1F [Compound 87] | 100% | 64 | 
33 | O=C(c1cc(C(F)(F)F)n[nH]1)N(CCC1CCSCC1)Cc1ccccc1F [Compound 79] | 95% | 1190 | 
34 | CN1CCN(CCN(Cc2ccccc2F)C(=O)c2cc(C(F)(F)F)n[nH]2)CC1 [Compound 103] | 42% |  | 37000
35 | O=C(c1cc(C(F)(F)F)n[nH]1)N(Cc1cccc2[nH]ccc12)NC1CCC1 [Compound 135] | 100% | 68 | 
36 | CCCN(CC)CCN(Cc1c(N)cccc1Cl)C(=O)c1cc(C(F)(F)F)n[nH]1 [Compound 223] | 100% |  | 32
37 | COc1ccc2nc(Cn3cnc4ccccc43)cc(=O)n2c1 [PP12] |  | 470 | 
38 | O=C(c1cc(C(F)(F)F)n[nH]1)N(Cc1ccccc1Cl)CC1CCS(=O)(=O)CC1 [Compound 72] | 22% | 19700 | 
39 | O=C(c1cc(C(F)(F)F)n[nH]1)N(Cc1ccccc1F)CC1COC1 [Compound 20] | 70% | 12000 | 
40 | O=C(c1cc(C(F)(F)F)n[nH]1)N(CCC1CCS(=O)(=O)C1)Cc1cc(F)ccc1F (stereo not drawn) [Compound 70] | 91% | 884 | 
41 | Nc1cccc(Cl)c1CN(CCN1CCCC1)C(=O)c1cc(C(F)(F)F)n[nH]1 [Compound 222] | 100% |  | 56
42 | O=C(c1cc(Br)n[nH]1)N(Cc1cccc2[nH]c(=O)sc12)CC1CCC1 [Compound 10] | 127% | 2740 | 
43 | O=C(c1cc(C(F)(F)F)n[nH]1)N(CCN1CCCC1)Cc1c(Cl)cccc1Cl [Compound 178] | 100% | 126 | 
44 | O=C(c1cc(C(F)(F)F)n[nH]1)N(Cc1cccc2[nH]c(=O)sc12)CC1CCC1 [Compound 7] | 87% | 3450 | 
45 | CCN(CC)CCN(Cc1ccc(F)cc1Cl)C(=O)c1cc(C(F)(F)F)n[nH]1 [Compound 170] | 100% |  | 505
46 | O=C(CCSC(=S)NCc1cccnc1)c1cccnc1 [PMA29] | 106% | 3700 | 

Row | SMILES | Max. Resp. (%) | AC50 [1] [nM] | AC50 [nM]
47 | O=C(c1cc(C(F)(F)F)n[nH]1)N(CCC1CCS(=O)(=O)C1)Cc1ccc(O)cc1F (stereo not drawn) [Compound 76] | 93% | 54 | 
48 | O=C(c1cc(C(F)(F)F)n[nH]1)N(CCC1CCS(=O)(=O)C1)Cc1cccc([N+](=O)[O-])c1Cl (stereo not drawn) [Compound 94] | 69% | 2380 | 
49 | CO[C@H]1CC[C@H](N(Cc2c(F)cccc2F)C(=O)c2cc(C(F)(F)F)n[nH]2)CC1 [Compound 49] | 122% | 914 | 
50 | CCN(CCN(Cc1ccccc1Cl)C(=O)c1cc(C(F)(F)F)n[nH]1)C(C)C [Compound 204] | 53% | 880 | 
51 | O=C(CCSC(=S)NCc1cccnc1)c1ccc(F)c(F)c1 [PMA21] | 42% | > 20000 | 
52 | O=C(c1cc(C(F)(F)F)n[nH]1)N(CCN1CCOCC1)Cc1ccccc1Cl [Compound 174] | 100% | 1490 | 
53 | CO[C@H]1CC[C@H](N(Cc2ccccc2Cl)C(=O)c2cc(C(F)(F)F)n[nH]2)CC1 [Compound 52] | 100% | 879 | 
54 | O=C(CCSC(=S)NCc1cccnc1)c1c[nH]c2ncccc12 [PMA32] | 182% | 1000 | 
55 | O=C(c1cc(C(F)(F)F)n[nH]1)N(Cc1ccccc1F)C1CCOCC1 [Compound 22] | 99% | 1520 | 
56 | CCCN(CC)CCN(Cc1c(N)cccc1F)C(=O)c1cc(C(F)(F)F)n[nH]1 [Compound 240] | 100% | 68 | 
57 | O=C(c1cc(C(F)(F)F)n[nH]1)N(CCC1CCOC1)Cc1ccccc1F (stereo not drawn) [Compound 26] | 99% | 377 | 
58 | O=C(c1cc(C(F)(F)F)n[nH]1)N(CCOC1CCCC1)Cc1ccccc1F [Compound 39] | 30% | 47000 | 
59 | O=c1cc(Cn2cnc3ccccc32)nc2sccn12 [PP18] |  | 266 | 
60 | Nc1cccc(CN(CCN2CCCCCC2)C(=O)c2cc(C(F)(F)F)n[nH]2)c1Cl [Compound 213] | 100% |  | 60
61 | CC1CCCCN1CCN(Cc1ccccc1F)C(=O)c1cc(C(F)(F)F)n[nH]1 (stereo not drawn) [Compound 203] | 100% | 550 | 
62 | O=C(CCSC(=S)NCc1cccnc1)c1ccco1 [PMA25] | 107% | 4300 | 
63 | CO[C@H]1CC[C@H](N(Cc2cccc(F)c2)C(=O)c2cc(C(F)(F)F)n[nH]2)CC1 [Compound 48] | 80% | 8580 | 
64 | Cn1cc(C(=O)c2cccc(Cl)c2Cl)cc1C(=O)NCCNC(=O)c1cc(C(=O)c2cccc(Cl)c2Cl)cn1C [CA5] |  | 14 | 
65 | CN(C)CCCN(Cc1ccccc1Cl)C(=O)c1cc(C(F)(F)F)n[nH]1 [Compound 186] | 100% | 375 | 
66 | O=C(c1cc(C(F)(F)F)n[nH]1)N(Cc1cn[nH]c1)Cc1cccc2[nH]cnc12 [Compound 144] |  | 25000 | 
67 | O=C(c1cc(C(F)(F)F)n[nH]1)N(CCN1CCCC1)Cc1ccccc1Cl [Compound 162] | 100% |  | 107
68 | CCN(CC)CCN(Cc1ccccc1C(C)C)C(=O)c1cc(C(F)(F)F)n[nH]1 [Compound 184] | 85% | 1950 | 
69 | O=C(c1cc(C(F)(F)F)n[nH]1)N(CCN1CCS(=O)(=O)CC1)Cc1cccc(F)c1F [Compound 111] | 64% | 13100 | 
